Experimental data taken from patent publication US11680298B2, “Method of identifying risk of cancer and therapeutic options” (Agency for Science, Technology and Research, priority 2016, dated 2023).
“Also recorded” adds a separate entry of the source.

Experiments:
IRAK1 [1] = target: T1, IRAK1 (Homo sapiens, UniProt P51617); assay: Western blot of phospho-IRAK1 in breast cancer cells and patient-derived tumourspheres; assay type: cell-based; design: endogenous in cells; host or cells: MB468 and MB231 cells; PDX-derived tumourspheres
Experimental: Recombinant IL-1p (Cat no: 200-01B) was purchased from Peprotech (Rocky Hill, N.J.). Recombinant S100A7 (Cat no: pro-149), S100A8 (Cat no: pro-800) and S100A9 (Cat no: pro-814), were purchased from ProSpec (East Brunswick, N.J.). Cells were treated with recombinant proteins at stated concentration for 20 min before harvesting for western blot. Paclitaxel (Cat no: P-9600) was purchased from LC Lab (Woburn, Mass.).
(§1) All immunoblots shown in this specification represent at least two independent experiments. In brief, cells were washed with PBS and lysed in RIPA buffer supplemented with protease and phosphatase inhibitors and further sonicated using an XL2000 Microson Ultrasonice Processor (Misonix). Equal amounts of protein extract were separated on SDS-polyacrylamided gels and transferred to PVDF membranes. Membranes were further blocked with 5% milk or BSA, and then probed with the following antibodies: anti-IRAK1 was purchased from Santa Cruz Biotechnology (Santa Cruz, Calif.; sc-7883), anti-phospho-IRAK1 (T209) was purchased from Assay Biotech (Sunnyvale, Calif.; A1074), anti-JAK2 (Danvers, Mass.; #3230) and anti-phospho-JAK2 ([…]) (Danvers, Mass.: #3774) were purchased from Cell Signaling Technology, anti-actin was purchased from Sigma Aldrich CA; A5441). For protein extraction of xenograft tumours, snap frozen samples were resuspended in RIPA buffer supplemented with protease and phosphatase inhibitors and homogenized with QIAGEN TissueLyzer II as described by the manufacturer, followed by immunoblotting as described above.

EL12-58 PDX tumours = assay: Neoadjuvant breast cancer PDX model of tumour recurrence; assay type: in vivo, NOD-SCID mice; conditions: after paclitaxel-induced regression and surgery; 20 mg/kg paclitaxel, 150 mg/kg pacritinib or both
IRAK1 [2] = target: T1, IRAK1; conditions: recently reported; cited from earlier work
[3] = tested on: PDX-derived tumourspheres; assay: Mammosphere (tumoursphere) formation assay, PDX-derived tumourspheres; assay type: cell-based, human; conditions: four different PDX-derived tumourspheres
Experimental: (§2) Mammosphere Formation Assay PDX-derived tumoursphere cells were trypsinized and passed through 40 μm cell strainer to achieve single cell suspensions. 3×10^4 cells were seeded in 6-well ultra-low attachment plates (Corning, N.Y.; CLS3471) in serum-free DMEM/F12 supplemented with N2 and B27 (Gibco, Grand Island, N.Y.), 20 ng/ml epidermal growth factor (MACS, Auburn, Calif.), 20 ng/ml basic fibroblast growth factor (MACS, Auburn, Calif.), 0.2 μM Thiazovivin ([…] Technologies, Vancouver, BC) and penicillin/streptomycin (Gibco, Carlsbad, Calif.). For breast cancer cell lines and MCF10A cell line, 3×10^4 cells were seeded in 6-well ultra-low attachment plates in Mammocult medium (Stem Cell Technologies, Vancouver, BC, Canada), supplemented with fresh hydrocortisone (0.5 μg/ml) and heparin (1:500). Mammospheres were maintained at 37° C. with 5% CO2 and topped up with medium every 3 days. After 7-9 days, mammospheres were stained with INT (2-(4-iodophenyl)-3-(4-nitrophenyl)-5-phenyl-2H-tetrazolium chloride, Sigma-Aldrich) and quantified. Imaging and quantification were done using GelCount apparatus and associated software (Oxford Optronix, Abingdon, UK). […] Cell Proliferation Assay

JAK2 = target: T2, JAK2 (Homo sapiens, UniProt O60674); assay: Western blot of phospho-JAK2 in breast cancer cells and patient-derived tumourspheres; assay type: cell-based; conditions: 6 hr pacritinib treatment, western blot
T2 construct: endogenous in cells; host or cells: MB468 and MB231 cells; PDX-derived tumourspheres
Description: as §1

S100A7/8/9 [4] = assay: Real time RT-PCR of S100A7/8/9 expression in HCC70 xenograft; assay type: in vivo, NOD-SCID mice; conditions: HCC70 xenograft (n=4) treated with pacritinib
Experimental: Mice were then dosed daily by oral gavage for 21 days. Tumour growth was monitored for 1 month.
(§3) Total RNA was isolated using TRIzol® reagent (Life Technologies, Carlsbad, Calif.; 15596026) and purified with Direct-zol™ RNA MiniPrep (Zymo Research, Irvine, Calif.; R2050). Reverse transcription and quantitative PCR assays were performed using High-Capacity cDNA Reverse Transcription Kit (Applied Biosystems, Carlsbad, Calif.; 4368813) and KAPA SyBr Fast qPCR kit (KAPA Biosystems, Wilmington, Mass.; KK4601). For quantification of mRNA levels, GAPDH level was used as an internal control. All reactions were analysed in an Applied Biosystems PRISM 7500 Fast Real-Time PCR system in 96-well plate format. For RNA extraction of xenograft tumours, snap frozen samples were resuspended in TRIzol® reagent and homogenized with QIAGEN TissueLyzer II as described by the manufacturer, followed by purification with Direct-zolI™ RNA MiniPrep.

S100A7/8/9 [5] = assay: Real-time PCR analysis of S100A7/8/9 gene expression in cells; assay type: cell-based, human
Experimental: as §3, with “Direct-zolTM” for “Direct-zol™”, “[…]).” for “R2050).”, “Direct-zolITM” for “Direct-zolI™”

MB468 tumourspheres = assay: Mammosphere (tumoursphere) formation assay, MB468; assay type: cell-based; conditions: MB468 cell line
Experimental: as §2

[6] = tested on: ER positive and ER negative breast cancer cell lines tumourspheres; assay: Tumoursphere growth in breast cancer cell lines with or without 1q21.3 amplification; assay type: cell-based; conditions: increasing dose of pacritinib
Experimental: For this purpose, the 1q21.3 gene amplification in a series of breast cancer cell lines was profiled using ddPCR (FIG. 6A). Of note, 1q21.3 status in these cell lines was in general correlated with phospho-IRAK1 and expression of S100A8/9 (FIG. 6B and FIG. 14A), but not with phospho-JAK2 status (FIG. 6B).
Mammosphere Formation Assay PDX-derived tumoursphere cells were trypsinized and passed through 40 μm cell strainer to achieve single cell suspensions. 3×10^4 cells were seeded in 6-well ultra-low attachment plates (Corning, N.Y.; CLS3471) in serum-free DMEM/F12 supplemented with N2 and B27 (Gibco, Grand Island, N.Y.), 20 ng/ml epidermal growth factor (MACS, Auburn, Calif.), 20 ng/ml basic fibroblast growth factor (MACS, Auburn, Calif.), 0.2 μM Thiazovivin ([…] Technologies, Vancouver, BC) and penicillin/streptomycin (Gibco, Carlsbad, Calif.). For breast cancer cell lines and MCF10A cell line, 3×10^4 cells were seeded in 6-well ultra-low attachment plates in Mammocult medium (Stem Cell Technologies, Vancouver, BC, Canada), supplemented with fresh hydrocortisone (0.5 μg/ml) and heparin (1:500). […] After 7-9 days, mammospheres were stained with INT (2-(4-iodophenyl)-3-(4-nitrophenyl)-5-phenyl-2H-tetrazolium chloride, Sigma-Aldrich) and quantified. Imaging and quantification were done using GelCount apparatus and associated software (Oxford Optronix, Abingdon, UK). […]

MB231 tumourspheres = assay: Mammosphere (tumoursphere) formation assay, MB231; assay type: cell-based; conditions: MB231 cell line
Experimental: as §2

T1 sequence (P51617 whole entry): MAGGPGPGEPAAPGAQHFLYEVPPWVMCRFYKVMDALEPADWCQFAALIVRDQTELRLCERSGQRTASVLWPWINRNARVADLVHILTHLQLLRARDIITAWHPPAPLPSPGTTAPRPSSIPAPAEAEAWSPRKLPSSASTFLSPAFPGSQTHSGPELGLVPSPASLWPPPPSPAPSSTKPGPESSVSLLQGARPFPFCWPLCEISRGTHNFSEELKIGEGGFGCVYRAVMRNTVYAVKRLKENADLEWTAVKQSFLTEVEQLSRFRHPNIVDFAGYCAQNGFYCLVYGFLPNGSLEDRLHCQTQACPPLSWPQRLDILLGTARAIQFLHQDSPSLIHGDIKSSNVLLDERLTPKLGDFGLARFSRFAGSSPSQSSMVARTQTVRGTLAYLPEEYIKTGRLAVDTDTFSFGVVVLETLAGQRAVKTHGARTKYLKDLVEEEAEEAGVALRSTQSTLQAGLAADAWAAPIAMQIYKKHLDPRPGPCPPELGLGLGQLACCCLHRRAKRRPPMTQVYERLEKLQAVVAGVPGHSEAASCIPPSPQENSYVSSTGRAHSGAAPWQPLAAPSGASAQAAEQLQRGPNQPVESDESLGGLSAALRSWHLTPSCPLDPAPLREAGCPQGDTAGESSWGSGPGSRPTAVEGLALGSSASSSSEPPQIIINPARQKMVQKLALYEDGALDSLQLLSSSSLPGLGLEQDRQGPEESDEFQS
T2 sequence (O60674 whole entry): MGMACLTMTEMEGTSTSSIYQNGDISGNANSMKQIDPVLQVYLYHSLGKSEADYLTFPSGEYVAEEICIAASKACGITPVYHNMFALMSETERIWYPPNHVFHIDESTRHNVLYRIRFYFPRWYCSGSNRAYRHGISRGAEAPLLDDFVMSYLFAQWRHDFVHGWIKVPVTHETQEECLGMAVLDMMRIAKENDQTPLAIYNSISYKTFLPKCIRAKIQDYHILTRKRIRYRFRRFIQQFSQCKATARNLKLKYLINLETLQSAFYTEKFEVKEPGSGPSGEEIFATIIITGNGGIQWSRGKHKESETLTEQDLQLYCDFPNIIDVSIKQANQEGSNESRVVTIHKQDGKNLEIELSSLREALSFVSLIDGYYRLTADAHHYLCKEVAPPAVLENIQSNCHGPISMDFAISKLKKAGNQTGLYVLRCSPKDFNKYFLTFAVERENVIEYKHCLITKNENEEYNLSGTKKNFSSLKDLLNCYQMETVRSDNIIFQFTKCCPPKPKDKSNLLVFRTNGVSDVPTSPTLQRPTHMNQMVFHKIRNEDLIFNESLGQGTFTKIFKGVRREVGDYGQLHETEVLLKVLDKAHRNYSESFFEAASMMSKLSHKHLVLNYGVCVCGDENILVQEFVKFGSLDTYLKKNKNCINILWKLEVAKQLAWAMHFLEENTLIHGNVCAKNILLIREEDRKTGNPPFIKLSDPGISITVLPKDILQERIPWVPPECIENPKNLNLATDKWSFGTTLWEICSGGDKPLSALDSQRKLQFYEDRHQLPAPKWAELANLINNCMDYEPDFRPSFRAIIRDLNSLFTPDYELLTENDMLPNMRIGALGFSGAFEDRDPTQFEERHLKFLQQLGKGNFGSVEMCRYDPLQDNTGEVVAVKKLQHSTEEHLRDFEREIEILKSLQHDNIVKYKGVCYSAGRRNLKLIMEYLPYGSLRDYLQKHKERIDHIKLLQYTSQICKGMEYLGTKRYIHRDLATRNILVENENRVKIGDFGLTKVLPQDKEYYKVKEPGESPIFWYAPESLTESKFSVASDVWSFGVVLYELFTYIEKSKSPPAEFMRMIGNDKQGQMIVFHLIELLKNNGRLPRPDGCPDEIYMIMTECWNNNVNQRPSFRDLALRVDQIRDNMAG

C1=C/COCc2cc(ccc2OCCN2CCCC2)Nc2nccc(n2)-c2cccc(c2)COC/1 [pacritinib]
phosphorylation of IRAK1 (IRAK1 [1]; MB468 cells, 6 hr pacritinib treatment, western blot): inhibition of phospho-IRAK1 and phospho-JAK2 within 6 hr; also recorded: effectively block the phosphorylation of both IRAK1 and JAK2 as early as 6 hours in a dose-dependent manner | phospho-IRAK1 (IRAK1 [1]; patient-derived (PDX-derived) tumoursphere cells, 24 hr, pacritinib 2.5 μM, with and without IL-1): prolonged inhibition of phospho-IRAK1; also recorded: sustained inhibition of phospho-IRAK1 | tumour regrowth after surgical removal of residual tumour (EL12-58 PDX tumours): slowed down | IRAK1 inhibition (IRAK1 [2]): potent IRAK1 inhibitor | tumoursphere growth [3]: strong tumoursphere growth inhibition | phosphorylation of JAK2 (JAK2; MB231 cells): inhibition of phospho-IRAK1 and phospho-JAK2 within 6 hr; also recorded: inhibited phosphorylation of JAK2 | phosphorylation of JAK2 (JAK2; MB468 cells): inhibition of phospho-IRAK1 and phospho-JAK2 within 6 hr; also recorded: effectively block the phosphorylation of both IRAK1 and JAK2 as early as 6 hours in a dose-dependent manner | S100A7/8/9 expression in xenograft (S100A7/8/9 [4]): downregulation | expression of S100A7/8/9 (S100A7/8/9 [5]; MB468 cells, 24 hr pacritinib treatment): reduced the expression of S100A7/8/9 in MB468 cells in a dose-dependent manner | S100A7 expression (S100A7/8/9 [5]; across the cell models tested): seemed to be cell specific | expressions of S100A8 and S100A9 (S100A7/8/9 [5]; across the cell models tested): consistently reduced | expression of S100A7/8/9 (S100A7/8/9 [5]; patient-derived tumoursphere cells, 24 hr, pacritinib 2.5 μM): reduced expression of S100A7/8/9 | number of tumourspheres (MB468 tumourspheres): strong tumoursphere inhibitory effect | tumoursphere growth, 1q21.3 amplified versus non-amplified cell lines [6]: preferential growth inhibition of breast cancer cells containing amplified S100A8 and/or S100A9 genes; also recorded: more effective in impairing tumoursphere growth in cancer cell lines positive for 1q21.3 amplification compared to negative cell lines; also recorded: more sensitive to pacritinib treatment compared to cancer cells without 1q21.3 amplification | number of tumourspheres (MB231 tumourspheres): little effect
